Assays:
Format in all cases: functional
Rattus norvegicus [1] = assay: Antiedema efficacy was measured in male Sprague-Dawley rats relative to aspirin; activity expressed as percent of aspirin
[2] = Ratio between ulcerogenicity and anti edema activity (UD50/ED25)
Rattus norvegicus [3] = species on record: Rattus norvegicus; assay: Compound was tested for 50% inhibition of incidence of lesions (UD50) in rat
Rattus norvegicus [4] = species on record: Rattus norvegicus; assay: Effective dose of compound to produce 25% inhibition in rat; Value ranges from 326-499

For `CC(=O)OCC(COC(C)=O)OC1(C)OC(=O)c2ccccc2O1` (configuration not stated), the Activity (Rattus norvegicus [1]) was 62%.

Compound `CCCCCCCCCCCCCCCC(=O)OCC(COC(=O)CCCCCCCCCCCCCCC)OC1(C)OC(=O)c2ccccc2O1` (configuration not stated) has an Activity (Rattus norvegicus [1]) of 62%.

`CCCCCCCCCC(=O)OCC(COC(=O)CCCCCCCCC)OC1(C)OC(=O)c2ccccc2O1` (configuration not stated) showed an Activity (Rattus norvegicus [1]) of 100%, a Ratio [2] of 10.6 and a UD50 (Rattus norvegicus [3]) of 4102 µM/kg.

`CC(=O)Oc1ccccc1C(=O)O` [ASPIRIN] gave an ED25 (Rattus norvegicus [4]) of 402 µM/kg and an Activity (Rattus norvegicus [1]) of 100%.

Source: ChEMBL document CHEMBL1121620, “Glycerides as prodrugs. 2. 1,3-Dialkanoyl-2-(2-methyl-4-oxo-1,3-benzodioxan-2-yl)glycerides (cyclic aspirin triglycerides) as antiinflammatory agents” (1980)
